What was measured:
Assay in all cases: relative viability (nuclei count vs DMSO), 5 days (fraction); higher = more cells survive
AZ3146 + Phenformin = compound: CN1CCC(CC1)OC2=CC(=C(C=C2)NC3=NC=C4C(=N3)N(C(=O)N4C)C5CCCC5)OC [AZ3146] + N=C(N)NC(=N)NCCc1ccccc1 [Phenformin] (partner 250 µM)
Outline: (§1)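 Relative viability divides the nuclei count in treated wells by that in vehicle wells. Lung cancer cell lines were seeded in 1536-well plates, dosed by pin tool the next day, and fixed and stained after 5 days in one step with final 0.05% Triton X-100, 1% formaldehyde and 1 ug/ml Hoechst. Dosing was a single drug or a fixed anchor-drug dose plus five library-drug doses (not always all listed) in √10 steps, and values are medians of duplicate plates imaged at 4×.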

AZ3146 + AZD7762 = compound: CN1CCC(CC1)OC2=CC(=C(C=C2)NC3=NC=C4C(=N3)N(C(=O)N4C)C5CCCC5)OC [AZ3146] + NC(=O)Nc1cc(-c2cccc(F)c2)sc1C(=O)N[C@H]1CCCNC1 [AZD7762] (partner 0.2 µM)
Outline: as §1

GSK-J4 + Vorinostat = compound: CCOC(=O)CCNc1cc(N2CCc3ccccc3CC2)nc(-c2ccccn2)n1 [GSK-J4] + O=C(CCCCCCC(=O)Nc1ccccc1)NO [Vorinostat] (partner 1 µM)
Outline: as §1

GSK-J4 + Bortezomib = compound: CCOC(=O)CCNc1cc(N2CCc3ccccc3CC2)nc(-c2ccccn2)n1 [GSK-J4] + CC(C)C[C@H](NC(=O)[C@H](Cc1ccccc1)NC(=O)c1cnccn1)B(O)O [Bortezomib] (partner 0.002 µM)
Outline: as §1

Row | Cell Line | relative viability (AZ3146 + Phenformin; first compound 0.08 µM) | relative viability (AZ3146 + Phenformin; first compound 0.253 µM) | relative viability (AZ3146 + Phenformin; first compound 0.8 µM) | relative viability (AZ3146 + Phenformin; first compound 2.53 µM) | relative viability (AZ3146 + Phenformin; first compound 8 µM) | relative viability (AZ3146 + AZD7762; first compound 0.08 µM) | relative viability (AZ3146 + AZD7762; first compound 0.8 µM) | relative viability (AZ3146 + AZD7762; first compound 2.53 µM) | relative viability (AZ3146 + AZD7762; first compound 8 µM) | relative viability (GSK-J4 + Vorinostat; first compound 0.5 µM) | relative viability (GSK-J4 + Vorinostat; first compound 1.581 µM) | relative viability (GSK-J4 + Vorinostat; first compound 5 µM) | relative viability (GSK-J4 + Vorinostat; first compound 15.81 µM) | relative viability (GSK-J4 + Vorinostat; first compound 50 µM) | relative viability (GSK-J4 + Bortezomib; first compound 0.5 µM) | relative viability (GSK-J4 + Bortezomib; first compound 1.581 µM) | relative viability (GSK-J4 + Bortezomib; first compound 5 µM) | relative viability (GSK-J4 + Bortezomib; first compound 15.81 µM) | relative viability (GSK-J4 + Bortezomib; first compound 50 µM) | relative viability (AZ3146 + AZD7762; first compound 0.253 µM)
1 | SW 900 | 0.625 | 0.576 | 0.439 | 0.502 | 0.383 | 0.527 | 0.59 | 0.767 | 0.519 | 0.607 | 0.414 | 0.79 | 0.408 | 0.483 |  |  |  |  |  | 
2 | PC-3 [JPC-3] | 0.465 | 0.476 | 0.517 | 0.521 | 0.461 | 0.734 | 0.797 | 0.813 | 0.754 | 1.05 | 0.723 | 0.671 | 0.624 | 0.725 | 0.77 | 0.764 | 0.705 | 0.789 | 0.816 | 
3 | NCI-H1648 |  |  |  |  |  |  | 0.863 | 0.757 | 0.624 | 0.527 |  | 0.868 |  | 0.415 |  |  |  |  |  | 
4 | A549 |  | 0.153 | 0.168 | 0.131 | 0.0734 |  |  |  |  |  |  |  |  |  |  |  |  |  |  | 
5 | A-427 | 0.375 | 0.332 | 0.243 | 0.282 | 0.227 | 0.622 | 0.56 | 0.527 | 0.508 | 0.814 | 0.518 |  | 0.785 | 0.393 | 0.937 |  | 0.839 | 0.781 | 0.789 | 0.665
6 | NCI-H1975 | 0.406 | 0.387 | 0.386 | 0.401 | 0.301 | 0.628 | 0.752 | 0.778 | 0.638 | 0.662 | 0.689 | 0.637 | 0.632 | 0.71 | 0.383 | 0.354 |  | 0.368 | 0.413 | 
7 | LU99A | 0.687 | 0.841 | 0.676 | 0.8 | 0.842 |  | 0.295 | 0.276 | 0.264 | 0.47 | 0.344 |  | 0.476 | 0.319 | 1.07 | 0.777 | 0.777 | 1.21 | 0.632 | 0.378
8 | SW 1573 | 0.398 | 0.407 | 0.365 | 0.367 | 0.239 |  |  |  |  | 0.817 | 0.396 | 0.406 | 0.845 | 0.276 | 0.872 | 0.724 | 1.08 | 1.07 | 0.898 | 
9 | EBC-1 |  |  |  |  |  |  |  |  |  |  |  |  |  |  | 0.436 | 0.526 | 0.441 | 0.61 | 0.346 | 
10 | COR-L23 | 0.401 | 0.44 | 0.416 | 0.526 | 0.336 |  |  |  |  | 0.474 | 0.442 |  | 0.413 | 0.361 | 0.944 | 0.815 |  | 1.01 | 0.729 | 
11 | NCI-H2009 | 0.478 | 0.494 | 0.402 | 0.386 | 0.311 |  |  |  |  | 0.731 | 0.622 | 0.56 | 0.682 | 0.259 | 0.837 | 0.329 | 0.58 | 0.962 | 0.398 | 
12 | NCI-H2023 | 0.403 | 0.428 | 0.349 | 0.38 | 0.217 |  |  |  |  | 0.59 | 0.497 | 0.545 | 0.514 | 0.283 | 0.912 | 0.71 | 0.878 | 0.799 | 0.801 | 
13 | SK-MES-1 | 0.661 | 0.649 | 0.61 | 0.635 | 0.518 |  |  |  |  | 0.986 | 0.968 | 1.04 | 1.04 | 0.524 |  |  |  |  |  | 
14 | NCI-H2170 | 0.352 | 0.434 | 0.338 | 0.364 | 0.357 | 0.85 | 0.871 | 0.814 | 0.713 | 0.813 | 0.677 | 0.803 | 0.638 | 0.761 |  |  |  |  |  | 0.889
15 | NCI-H2342 | 0.568 | 0.565 | 0.615 | 0.512 | 0.51 | 0.472 | 0.489 | 0.521 | 0.529 | 0.81 | 0.842 | 0.887 | 1.09 | 1.02 |  |  |  |  |  | 0.481
16 | NCI-H522 | 0.818 | 0.698 | 0.757 | 0.631 | 0.62 | 0.803 | 0.807 | 0.698 | 0.577 | 0.931 | 0.725 |  | 0.651 | 0.862 |  |  |  |  |  | 0.57
17 | NCI-H661 | 0.285 | 0.25 | 0.265 | 0.274 | 0.29 |  |  |  |  | 0.833 | 0.687 | 0.821 | 0.728 | 0.608 | 0.896 | 0.852 | 0.791 | 0.589 | 0.583 | 
18 | NCI-H1944 | 0.168 | 0.18 | 0.188 | 0.19 | 0.207 | 0.311 | 0.482 | 0.516 | 0.469 | 0.566 | 0.477 |  | 0.419 | 0.427 |  |  |  |  |  | 0.509
19 | NCI-H358 | 0.451 | 0.283 | 0.319 | 0.313 | 0.149 | 0.346 | 0.363 | 0.581 | 0.313 | 0.662 |  | 0.671 | 0.602 | 0.455 |  |  |  |  |  | 0.469
20 | NCI-H520 | 0.385 | 0.497 | 0.323 | 0.637 | 0.375 |  |  |  |  | 0.644 | 0.527 | 0.69 | 0.659 | 0.648 | 0.553 | 0.316 | 0.299 | 0.509 | 0.556 | 
21 | NCI-H1793 | 0.473 | 0.286 | 0.339 | 0.35 | 0.213 | 0.259 | 0.259 | 0.229 | 0.178 | 0.942 | 0.586 | 0.663 | 0.358 | 0.284 |  |  |  |  |  | 0.397
22 | NCI-H1792 | 0.191 |  | 0.318 | 0.267 | 0.121 | 0.414 | 0.641 | 0.601 | 0.617 |  |  |  |  |  | 0.963 | 0.724 | 0.915 | 0.909 | 1.02 | 0.631
23 | COR-L 105 | 0.548 | 0.451 | 0.505 | 0.388 | 0.294 |  |  |  |  | 0.899 |  | 0.833 | 0.843 | 0.526 | 0.851 | 0.521 | 0.605 | 0.734 | 0.856 | 

From the supplement of paper PMC10307832
